In the NIST ThermoML archive (doi:10.1021/acs.jced.7b00106):

Settings: Liquid, Hot wire method

FC(F)(F)/C=C/Cl [(E)-1-chloro-3,3,3-trifluoroprop-1-ene]
Settings | thermal conductivity [W/m/K]
242.05 K, 36072 kPa | 0.1119
242.06 K, 13440 kPa | 0.1056
242.08 K, 7089 kPa | 0.1037
242.09 K, 28062 kPa | 0.1106
242.11 K, 583 kPa | 0.101
242.13 K, 20421 kPa | 0.1074
242.18 K, 13439 kPa | 0.105
242.22 K, 7107 kPa | 0.1031
242.24 K, 585 kPa | 0.1007
242.32 K, 63843 kPa | 0.1195
242.33 K, 53263 kPa | 0.1172
242.34 K, 36064 kPa | 0.112
242.34 K, 43841 kPa | 0.1149
242.41 K, 28063 kPa | 0.1093
242.45 K, 20418 kPa | 0.1078
242.46 K, 53261 kPa | 0.1167
242.46 K, 63839 kPa | 0.1194
242.47 K, 43873 kPa | 0.1147
242.49 K, 36067 kPa | 0.1119
242.5 K, 13437 kPa | 0.1053
242.54 K, 7100 kPa | 0.1033
242.55 K, 28067 kPa | 0.11
242.56 K, 597 kPa | 0.101
242.59 K, 20435 kPa | 0.1072
242.65 K, 13436 kPa | 0.105
242.69 K, 7107 kPa | 0.1029
242.76 K, 53251 kPa | 0.1166
242.76 K, 63833 kPa | 0.1199
242.79 K, 43839 kPa | 0.115
242.81 K, 36066 kPa | 0.1121
242.88 K, 28066 kPa | 0.1102
242.91 K, 63824 kPa | 0.1193
242.93 K, 20434 kPa | 0.1075
242.93 K, 53255 kPa | 0.1164
242.96 K, 43854 kPa | 0.1143
242.98 K, 36047 kPa | 0.1118
242.99 K, 13448 kPa | 0.1056
243.04 K, 7102 kPa | 0.1029
243.05 K, 28059 kPa | 0.1096
243.08 K, 588 kPa | 0.101
243.11 K, 20431 kPa | 0.1071
243.18 K, 13440 kPa | 0.105
243.22 K, 7112 kPa | 0.1026
243.23 K, 63821 kPa | 0.1197
243.26 K, 584 kPa | 0.1004
243.26 K, 53253 kPa | 0.1164
243.29 K, 43835 kPa | 0.1146
243.3 K, 36069 kPa | 0.1121
243.4 K, 28075 kPa | 0.1098
243.42 K, 63814 kPa | 0.1191
243.44 K, 53247 kPa | 0.1163
243.46 K, 20431 kPa | 0.1074
243.49 K, 43850 kPa | 0.114
243.51 K, 36041 kPa | 0.1117
243.53 K, 13443 kPa | 0.1053
243.58 K, 7097 kPa | 0.103
243.6 K, 28066 kPa | 0.1094
243.63 K, 586 kPa | 0.1005
243.66 K, 20425 kPa | 0.107
243.74 K, 63809 kPa | 0.1193
243.78 K, 53242 kPa | 0.1168
243.8 K, 7115 kPa | 0.1027
243.83 K, 43827 kPa | 0.1143
243.85 K, 580 kPa | 0.1001
243.85 K, 36062 kPa | 0.1118
243.96 K, 28066 kPa | 0.1097
243.96 K, 63804 kPa | 0.119
244 K, 53243 kPa | 0.1163
244.02 K, 20445 kPa | 0.1073
244.06 K, 43851 kPa | 0.1139
244.09 K, 36043 kPa | 0.1116
244.19 K, 28067 kPa | 0.1093
244.27 K, 20428 kPa | 0.1068
261.5 K, 276 kPa | 0.09433
261.52 K, 5038 kPa | 0.09629
261.54 K, 10280 kPa | 0.09846
261.55 K, 22296 kPa | 0.1036
261.56 K, 15956 kPa | 0.1002
261.58 K, 270 kPa | 0.09415
261.61 K, 5056 kPa | 0.09622
261.63 K, 10283 kPa | 0.09831
261.64 K, 22292 kPa | 0.1023
261.65 K, 15950 kPa | 0.1003
261.91 K, 36411 kPa | 0.1079
261.91 K, 42842 kPa | 0.1093
261.93 K, 282 kPa | 0.09438
261.93 K, 5041 kPa | 0.09641
261.94 K, 29216 kPa | 0.1051
261.95 K, 22290 kPa | 0.103
261.96 K, 10273 kPa | 0.09851
261.96 K, 15950 kPa | 0.1005
261.97 K, 65297 kPa | 0.1155
262 K, 59186 kPa | 0.115
262.01 K, 36414 kPa | 0.1074
262.01 K, 42847 kPa | 0.1089
262.02 K, 51140 kPa | 0.1116
262.04 K, 270 kPa | 0.094
262.05 K, 29220 kPa | 0.105
262.06 K, 5047 kPa | 0.09593
262.06 K, 10278 kPa | 0.09816
262.06 K, 22290 kPa | 0.1024
262.06 K, 65280 kPa | 0.115
262.08 K, 15930 kPa | 0.1003
262.1 K, 59178 kPa | 0.1128
262.12 K, 51139 kPa | 0.1114
262.33 K, 36413 kPa | 0.1071
262.33 K, 42846 kPa | 0.1091
262.37 K, 65275 kPa | 0.1153
262.38 K, 29224 kPa | 0.1054
262.4 K, 275 kPa | 0.09425
262.4 K, 22288 kPa | 0.1026
262.41 K, 59182 kPa | 0.1141
262.42 K, 5040 kPa | 0.09609
262.42 K, 10267 kPa | 0.09829
262.43 K, 51128 kPa | 0.1115
262.44 K, 15943 kPa | 0.1005
262.46 K, 42848 kPa | 0.1091
262.47 K, 36410 kPa | 0.107
262.5 K, 65252 kPa | 0.115
262.51 K, 29222 kPa | 0.1049
262.53 K, 59166 kPa | 0.1136
262.55 K, 22288 kPa | 0.1025
262.56 K, 273 kPa | 0.09391
262.56 K, 51133 kPa | 0.1113
262.57 K, 5039 kPa | 0.09583
262.57 K, 10288 kPa | 0.09813
262.57 K, 15931 kPa | 0.09995
262.8 K, 42854 kPa | 0.1091
262.81 K, 36411 kPa | 0.107
262.81 K, 65229 kPa | 0.1152
262.86 K, 29224 kPa | 0.105
262.86 K, 59156 kPa | 0.1141
262.89 K, 51121 kPa | 0.1116
262.9 K, 22284 kPa | 0.1027
262.94 K, 280 kPa | 0.094
262.94 K, 10264 kPa | 0.09833
262.94 K, 15933 kPa | 0.1003
262.95 K, 5058 kPa | 0.09606
262.95 K, 42854 kPa | 0.1089
262.96 K, 65209 kPa | 0.115
262.98 K, 36413 kPa | 0.1068
263.01 K, 59151 kPa | 0.1135
263.03 K, 29224 kPa | 0.1045
263.05 K, 51114 kPa | 0.1112
263.06 K, 22282 kPa | 0.1023
